Test: Aqueous solubilities of N-alkylalkano and N-H hydroxamic acids (25° C.)
Type: physicochemical
Text: It is desirable that the extractant for metals have low solubility in water in order to avoid loss of extractant in aqueous media. In Table 1, the aqueous solubilities of a number of hydroxamic acids are reported.

SMILES | aqueous solubility (in words) (aqueous media) | SOLUBILITY (25° C.) (aqueous, 25° C.)
CCCCCCCCC(=O)N(C)O [N-methylnonanohydroxamic acid] | relatively high aqueous solubility | 
CCCCCCCCCC(=O)N(C)O [N-methyldecanohydroxamic acid] |  | 5.48 × 10^-4 molarity

Source: patent US5030427A, “Gallium purification” (Monsanto Company, priority 1988, dated 1991)
